Results from patent US9833497B2, “Human originated EGF domain proteins and use of the same” (CHENGDU SOURCEBIO LIMITED-LIABILITY COMPANY, priority 2013, dated 2017).

Assays:
Format in all cases: cell-based
Proteus mirabilis = assay: MIC against Gram-negative bacteria: Proteus mirabilis; settings: 5×10^5 CFU/mL; for MIC P. mirabilis: two-fold serial dilution
Procedure, shortened: (§1)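 Inocula prepared by growing LB cultures at 37° C to 0.5 McFarland, centrifuging at 4000×g, and resuspending in fresh medium. Final density 5×10^5 CFU/mL per well with two-fold dilutions of purified EGF domain protein; shaking incubation at 37° C.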

Serratia marcescens = assay: MIC against Gram-negative bacteria: Serratia marcescens; settings: 5×10^5 CFU/mL; for MIC S. marcescens: two-fold serial dilution
Procedure, shortened: as §1

Pseudomonas aeruginosa = assay: MIC against Gram-negative bacteria: Pseudomonas aeruginosa; settings: 5×10^5 CFU/mL; for MIC P. aeruginosa: two-fold serial dilution
Procedure, shortened: as §1

E. coli DH5α = assay: Antibacterial activity: MIC and growth curve against E. coli DH5α in 96-well plate; settings: minimal inhibitory concentration against E. coli DH5α; 96-well plate, 5×10^5 CFU/mL, 37° C., judged after 8 h
Procedure, shortened: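 Log-phase bacteria (OD600 ~0.5) resuspended in LB at 5×10^5 CFU/mL, exposed to recombinant protein at 50, 25, 12.5 μg/mL final in triplicate, 37 °C shaking at 175 rpm. OD600 read every 30 min; MIC is lowest concentration showing no growth.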

Klebsiella pneumonia = assay: MIC against Gram-negative bacteria: Klebsiella pneumonia; settings: 5×10^5 CFU/mL; for MIC K. pneumonia: two-fold serial dilution
Procedure, shortened: as §1

Proteus vulgaris = assay: MIC against Gram-negative bacteria: Proteus vulgaris; settings: 5×10^5 CFU/mL; for MIC P. vulgaris: two-fold serial dilution
Procedure, shortened: as §1

E. coli BL21 = assay: MIC against Gram-negative bacteria: E. coli BL21; settings: 5×10^5 CFU/mL; for MIC E. coli BL21: two-fold serial dilution
Procedure, shortened: as §1

Enterobacter cloacae = assay: MIC against Gram-negative bacteria: Enterobacter cloacae; settings: 5×10^5 CFU/mL; for MIC E. cloacae: two-fold serial dilution
Procedure, shortened: as §1

Citrobacter diversus = assay: MIC against Gram-negative bacteria: Citrobacter diversus; settings: 5×10^5 CFU/mL; for MIC C. diversus: two-fold serial dilution
Procedure, shortened: as §1

Moraxella catarrhalis = assay: MIC against Gram-negative bacteria: Moraxella catarrhalis; settings: 5×10^5 CFU/mL; for MIC M. catarrhalis: two-fold serial dilution
Procedure, shortened: as §1

Aeromonas hydrophila = assay: MIC against Gram-negative bacteria: Aeromonas hydrophila; settings: 5×10^5 CFU/mL; for MIC A. hydrophila: two-fold serial dilution
Procedure, shortened: as §1

[1] = E. coli BL21, 10 h cultivation at 37° C.
[2] = Proteus mirabilis, 96-well plate, 37° C., 10 h
[3] = Serratia marcescens, 96-well plate, 37° C., 10 h
[4] = Pseudomonas aeruginosa, 96-well plate, 37° C., 10 h
[5] = Klebsiella pneumonia, 96-well plate, 37° C., 10 h
[6] = Proteus vulgaris, 96-well plate, 37° C., 10 h
[7] = E. coli BL21, 96-well plate, 37° C., 10 h
[8] = Enterobacter cloacae, 96-well plate, 37° C., 10 h
[9] = Citrobacter diversus, 96-well plate, 37° C., 10 h
[10] = Moraxella catarrhalis, 96-well plate, 37° C., 10 h
[11] = Aeromonas hydrophila, 96-well plate, 37° C., 10 h

Substance | MIC (E. coli DH5α) [µg/mL] | MIC P. mirabilis (Proteus mirabilis; 10 h cultivation at 37° C.) [µg/mL] | MIC S. marcescens (Serratia marcescens; 10 h cultivation at 37° C.) [µg/mL] | MIC P. aeruginosa (Pseudomonas aeruginosa; 10 h cultivation at 37° C.) [µg/mL] | MIC K. pneumonia (Klebsiella pneumonia; 10 h cultivation at 37° C.) [µg/mL] | MIC P. vulgaris (Proteus vulgaris; 10 h cultivation at 37° C.) [µg/mL] | MIC E. coli BL21 (E. coli BL21; 10 h cultivation at 37° C.) [µg/mL] | MIC E. cloacae (Enterobacter cloacae; 10 h cultivation at 37° C.) [µg/mL] | MIC C. diversus (Citrobacter diversus; 10 h cultivation at 37° C.) [µg/mL] | MIC M. catarrhalis (Moraxella catarrhalis; 10 h cultivation at 37° C.) [µg/mL] | MIC A. hydrophila (Aeromonas hydrophila; 10 h cultivation at 37° C.) [µg/mL] | MIC (μg/mL) P. mirabilis (Proteus mirabilis; [2]) [µg/mL] | MIC (μg/mL) S. marcescens (Serratia marcescens; [3]) [µg/mL] | MIC (μg/mL) P. aeruginosa (Pseudomonas aeruginosa; [4]) [µg/mL] | MIC (μg/mL) K. pneumonia (Klebsiella pneumonia; [5]) [µg/mL] | MIC (μg/mL) P. vulgaris (Proteus vulgaris; [6]) [µg/mL] | MIC (μg/mL) E. coli BL21 (E. coli BL21; [7]) [µg/mL] | MIC (μg/mL) E. cloacae (Enterobacter cloacae; [8]) [µg/mL] | MIC (μg/mL) C. diversus (Citrobacter diversus; [9]) [µg/mL] | MIC (μg/mL) M. catarrhalis (Moraxella catarrhalis; [10]) [µg/mL] | further results
PRT1438 (PVKSCSEPRCFNGGTCQQALYFSDFVCQCPEGFAGKCCE; listed as Homo sapiens) | 12.5 |  |  |  |  |  |  |  |  |  |  |  |  |  |  |  |  |  |  |  | MIC against P. mirabilis (Proteus mirabilis; Proteus mirabilis, 10 h cultivation at 37° C.): 50 µg/mL; MIC against S. marcescens (Serratia marcescens; Serratia marcescens, 10 h cultivation at 37° C.): 12.5 µg/mL; MIC against P. aeruginosa (Pseudomonas aeruginosa; Pseudomonas aeruginosa, 10 h cultivation at 37° C.): 50 µg/mL; MIC against K. pneumonia (Klebsiella pneumonia; Klebsiella pneumonia, 10 h cultivation at 37° C.): 25 µg/mL; MIC against P. vulgaris (Proteus vulgaris; Proteus vulgaris, 10 h cultivation at 37° C.): 25 µg/mL; MIC against E. coli BL21 (E. coli BL21; [1]): 25 µg/mL; MIC against E. cloacae (Enterobacter cloacae; Enterobacter cloacae, 10 h cultivation at 37° C.): 12.5 µg/mL; MIC against C. diversus (Citrobacter diversus; Citrobacter diversus, 10 h cultivation at 37° C.): 50 µg/mL; MIC against M. catarrhalis (Moraxella catarrhalis; Moraxella catarrhalis, 10 h cultivation at 37° C.): 12.5 µg/mL; MIC against A. hydrophila (Aeromonas hydrophila; Aeromonas hydrophila, 10 h cultivation at 37° C.): 25 µg/mL
PRT1174 (DLNYCGTHQPCLNGGTCSNTGPDKYQCSCPEGYSGPNCE; listed as Homo sapiens) | 12.5 | 12.5 | 50 | 12.5 | 50 | 25 | 50 | 12.5 | 12.5 | 50 | 50 |  |  |  |  |  |  |  |  |  | 
PRT115 (SRNPCSSSPCRGGATCVLGPHGKNYTCRCPQGYQLDSSQLDCV; listed as Homo sapiens) | 12.5 |  |  |  |  |  |  |  |  |  |  | 12.5 | 12.5 | 12.5 | 50 | 12.5 | 50 | 25 | 25 | 50 | MIC (μg/mL) A. hydrophila (Aeromonas hydrophila; [11]): 12.5 µg/mL
PRT122 (CAPCQGNGVPVLKGSRCDCICPVGSQGLACE; listed as Homo sapiens) | 12.5 |  |  |  |  |  |  |  |  |  |  | 12.5 | 12.5 | 12.5 | 12.5 | 25 | 12.5 | 12.5 | 12.5 | 25 | MIC (μg/mL) A. hydrophila (Aeromonas hydrophila; [11]): 12.5 µg/mL
PRT782 (AERCDCSHADGCHPTTGHCRCLPGWSGVHCD; listed as Homo sapiens) | 50 |  |  |  |  |  |  |  |  |  |  |  |  |  |  |  |  |  |  |  | MIC (μg/mL) P. mirabilis (Proteus mirabilis; P. mirabilis, 10 h cultivation at 37° C.): 25 µg/mL; MIC (μg/mL) S. marcescens (Serratia marcescens; S. marcescens, 10 h cultivation at 37° C.): 50 µg/mL; MIC (μg/mL) P. aeruginosa (Pseudomonas aeruginosa; P. aeruginosa, 10 h cultivation at 37° C.): 12.5 µg/mL; MIC (μg/mL) K. pneumonia (Klebsiella pneumonia; K. pneumonia, 10 h cultivation at 37° C.): 12.5 µg/mL; MIC (μg/mL) P. vulgaris (Proteus vulgaris; P. vulgaris, 10 h cultivation at 37° C.): 12.5 µg/mL; MIC (μg/mL) E. coli BL21 (E. coli BL21; [1]): 25 µg/mL; MIC (μg/mL) E. cloacae (Enterobacter cloacae; E. cloacae, 10 h cultivation at 37° C.): 12.5 µg/mL; MIC (μg/mL) C. diversus (Citrobacter diversus; C. diversus, 10 h cultivation at 37° C.): 12.5 µg/mL; MIC (μg/mL) M. catarrhalis (Moraxella catarrhalis; M. catarrhalis, 10 h cultivation at 37° C.): 12.5 µg/mL; MIC (μg/mL) A. hydrophila (Aeromonas hydrophila; A. hydrophila, 10 h cultivation at 37° C.): 12.5 µg/mL
PRT1132 (DEHICTTQSPCQNGGQCMYDGGGEYHCVCLPGFHGRDCE; listed as Homo sapiens) | 50 | 25 | 25 | 50 | 12.5 | 50 | 12.5 | 50 | 50 | 12.5 | 12.5 |  |  |  |  |  |  |  |  |  | 
